Measured values as given in article PMC1315280, “The Flavoring Agent Dihydrocoumarin Reverses Epigenetic Silencing and Inhibits Sirtuin Deacetylases” (PLoS Genetics, 2005).

Molecular target: T1, SIRT1 (Homo sapiens, UniProt Q96EB6)
T1 construct: recombinant SIRT1
T1 sequence (Q96EB6 2-747): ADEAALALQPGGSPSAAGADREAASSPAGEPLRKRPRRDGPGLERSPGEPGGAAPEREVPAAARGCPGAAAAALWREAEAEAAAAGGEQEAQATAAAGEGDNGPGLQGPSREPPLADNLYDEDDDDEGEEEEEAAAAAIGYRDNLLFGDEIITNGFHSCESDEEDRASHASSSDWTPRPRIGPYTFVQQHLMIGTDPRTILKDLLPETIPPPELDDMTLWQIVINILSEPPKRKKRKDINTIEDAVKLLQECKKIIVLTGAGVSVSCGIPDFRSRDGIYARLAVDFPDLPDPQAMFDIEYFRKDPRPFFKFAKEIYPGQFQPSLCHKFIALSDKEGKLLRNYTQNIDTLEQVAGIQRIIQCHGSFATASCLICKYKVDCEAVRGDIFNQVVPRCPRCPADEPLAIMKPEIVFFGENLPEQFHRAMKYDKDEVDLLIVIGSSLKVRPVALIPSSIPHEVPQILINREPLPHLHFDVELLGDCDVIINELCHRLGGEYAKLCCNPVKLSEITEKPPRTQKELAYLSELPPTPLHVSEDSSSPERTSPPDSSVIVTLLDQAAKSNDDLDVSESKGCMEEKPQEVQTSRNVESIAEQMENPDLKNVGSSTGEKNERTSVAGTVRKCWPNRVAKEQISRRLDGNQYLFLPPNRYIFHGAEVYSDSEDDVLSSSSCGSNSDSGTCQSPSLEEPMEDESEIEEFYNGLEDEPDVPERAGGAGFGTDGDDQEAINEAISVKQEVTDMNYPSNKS
Test: in vitro deacetylase assay with recombinant enzyme and [3H] acetylated histone H4 peptide
Type: biochemical

IC50: 208 µM
Structure (SMILES): O=C1CCc2ccccc2O1 [DHC, dihydrocoumarin]
